The results in this text go back to publication PMC4038554, “Human CD4^+ T Cell Responses to the Dog Major Allergen Can f 1 and Its Human Homologue Tear Lipocalin Resemble Each Other” (PLoS ONE, 2014).

Holding throughout (assay): HLA class II peptide-binding assay (competitive ELISA)
(An ELISA detects its analyte on a solid surface through an enzyme-linked reagent.)

In one assay the target is DRB1*0301 (Homo sapiens, UniProt P01903+P01911, A100K/A102G/A103R/A169T/F55Y/I96L/K41T/L162R/M171V/P40S/Q125H/Q178H/Q39Y/R42S/S66N/T106N/T262R/W38E/Y61H). The conditions noted are these: immunopurified HLA, reference peptide IC50 423 nM, ratio ≤20 high affinity, 20–200 moderate affinity.
Another assay concerns the target DRB1*1501 (Homo sapiens, UniProt P01903+P01911). The settings on record: immunopurified HLA, reference peptide IC50 775 nM, ratio ≤20 high affinity, 20–200 moderate affinity.
The target of the next assay is DRB1*1301 (Homo sapiens, UniProt P01903+P01911, A100E/A169T/K41T/L162R/M171V/P40S/Q125H/Q178H/Q39Y/Q99D/R42S/S66N/T262R/W38E/Y61H). The settings on record: immunopurified HLA, reference peptide IC50 208 nM, ratio ≤20 high affinity, 20–200 moderate affinity.
The subject of a further assay is DRB3. On the set-up: species or system human. The settings on record: DRB3; competitive ELISA, immunopurified HLA; reference peptide IC50 60 nM; ratio ≤20 high affinity, 20–200 moderate affinity.
In another assay the target is DRB1*0701 (Homo sapiens, UniProt P01903+P01911, A100R/A102G/A103Q/D57E/D86V/E43K/F76Y/K127E/L162R/M171V/P40G/Q125H/Q99D/R33Q/R42Y/R54Q/S133A/S66F/T210M/V115G/Y107V/Y59L/Y89S). The settings on record: immunopurified HLA, reference peptide IC50 5 nM, ratio ≤20 high affinity, 20–200 moderate affinity.
In the next assay the target is DRB1*1101 (Homo sapiens, UniProt P01903+P01911, A100R/A169T/A87E/I96F/K41T/L162R/M171V/P40S/Q125H/Q178H/Q39Y/Q99D/R42S/S66Y/T262R/V115G/W38E). The settings on record: immunopurified HLA, reference peptide IC50 50 nM, ratio ≤20 high affinity, 20–200 moderate affinity.
Another assay has as its target DRB1*0401 (Homo sapiens, UniProt P01903+P01911, A100K/A169T/F76Y/I96L/K127E/L162R/M171V/N62H/P40V/Q125Y/R42H/S133A/S149N/S66Y/V115G/V209L/W38E). The conditions noted are these: immunopurified HLA, reference peptide IC50 8 nM, ratio ≤20 high affinity, 20–200 moderate affinity.
The next assay deals with DRB5. On the set-up: species or system human. The conditions noted are these: DRB5; competitive ELISA, immunopurified HLA; reference peptide IC50 7 nM; ratio ≤20 high affinity, 20–200 moderate affinity.
Another assay addresses DRB1*0101 (Homo sapiens, UniProt P01903+P01911, A100R/D57E/F55L/F60I/F76Y/I96L/L162R/M171V/P40L/Q125E/R42F/V115G/Y59C). The settings on record: immunopurified HLA, reference peptide IC50 3 nM, ratio ≤20 high affinity, 20–200 moderate affinity.
The subject of another assay is DRB4. On the set-up: species or system human. The settings on record: DRB4; competitive ELISA, immunopurified HLA; reference peptide IC50 8 nM; ratio ≤20 high affinity, 20–200 moderate affinity.

On to “GQRVVFIQPSPVRDHY [pC5, Can f 1 peptide p81–96]”, for which the “relative binding ratio (IC50 of the test peptide divided by IC50 of the reference peptide)” value at DRB1*0301 is on record as 28; on DRB1*1501 it was 7; on DRB1*1301, 33; with DRB3, above 167; at DRB1*0701 it was 61; on DRB1*1101 it was 179. Further, the “relative binding ratio (IC50 of the test peptide divided by IC50 of the reference peptide)” value at DRB1*0401 was 101; with DRB5 it was 3; on DRB1*0101, 1; in the assay with DRB4, 1 054.
Turning to “RQIRMAKLLGRDPEQSQ [pC7, Can f 1 peptide p107–123]”, the “relative binding ratio (IC50 of the test peptide divided by IC50 of the reference peptide)” value is listed as 4 at DRB1*0301; above 13 on DRB1*1501; 2 at DRB1*1301; above 167 in the assay with DRB3; > 1 874 at DRB1*0701; 92 on DRB1*1101. The “relative binding ratio (IC50 of the test peptide divided by IC50 of the reference peptide)” value on DRB1*0401 came out at 661; in the assay on DRB5 it was 1; on DRB1*0101, 66; in the assay with DRB4, 94.
Turning to “HYIFYCEGELHGKPVR [pTL6, Tear lipocalin peptide p96–111]”, the “relative binding ratio (IC50 of the test peptide divided by IC50 of the reference peptide)” value at DRB1*0301 was above 236; on DRB1*1501 it was 5; on DRB1*1301 it was above 481; in the assay on DRB3, above 167; at DRB1*0701, 2 222; on DRB1*1101 it was 3. Besides, the “relative binding ratio (IC50 of the test peptide divided by IC50 of the reference peptide)” value on DRB1*0401 came out at 3; in the assay on DRB5, 16; on DRB1*0101, 31; in the assay on DRB4, 121.
Regarding “PGKYTADGGKHVAYII [pTL4, Tear lipocalin peptide p74–89]”, the “relative binding ratio (IC50 of the test peptide divided by IC50 of the reference peptide)” value on DRB1*0301 is on record as above 236; at DRB1*1501, above 13; on DRB1*1301, above 481; in the assay on DRB3, 2; on DRB1*0701, 65; on DRB1*1101, 0.2. Moreover, the “relative binding ratio (IC50 of the test peptide divided by IC50 of the reference peptide)” value on DRB1*0401 is recorded as 31; in the assay on DRB5, 433; at DRB1*0101, 17; in the assay on DRB4, > 1 179.
“ESILIPRQSETCSPGSD [pTL9, Tear lipocalin peptide p142–158]”: the “relative binding ratio (IC50 of the test peptide divided by IC50 of the reference peptide)” value is recorded as above 236 at DRB1*0301; above 13 at DRB1*1501; above 481 on DRB1*1301; above 167 with DRB3; > 1 874 on DRB1*0701; above 200 at DRB1*1101. Moreover, the “relative binding ratio (IC50 of the test peptide divided by IC50 of the reference peptide)” value at DRB1*0401 is > 1 260; in the assay on DRB5, > 1 443; on DRB1*0101, 569; with DRB4, > 1 179.
In the case of “GKWYLKAMTADQEVPE [pC1, Can f 1 peptide p15–30]”, the “relative binding ratio (IC50 of the test peptide divided by IC50 of the reference peptide)” value is listed as 1 at DRB1*0301; 8 on DRB1*1501; 26 at DRB1*1301; above 167 in the assay with DRB3; 75 at DRB1*0701; 70 at DRB1*1101. The “relative binding ratio (IC50 of the test peptide divided by IC50 of the reference peptide)” value on DRB1*0401 turned out to be 1; with DRB5 it was 72; on DRB1*0101 it was 32; in the assay with DRB4, 29.
On to “ALEDFEKAAGARGLST [pTL8, Tear lipocalin peptide p126–141]”, for which the “relative binding ratio (IC50 of the test peptide divided by IC50 of the reference peptide)” value on DRB1*0301 is above 236; on DRB1*1501, above 13; at DRB1*1301, above 481; in the assay on DRB3 it was above 167; on DRB1*0701, 1 440; at DRB1*1101, above 200. In addition, the “relative binding ratio (IC50 of the test peptide divided by IC50 of the reference peptide)” value is reported as 85 on DRB1*0401, 22 with DRB5, 3 at DRB1*0101 and > 1 179 with DRB4.
For “GTWYLKAMTVDREFPE [pTL1, Tear lipocalin peptide p15–30]”, the “relative binding ratio (IC50 of the test peptide divided by IC50 of the reference peptide)” value at DRB1*0301 stood at 10; on DRB1*1501, 6; on DRB1*1301 it was 24; in the assay on DRB3, 84; at DRB1*0701 it was 47; at DRB1*1101, 67. Also, the “relative binding ratio (IC50 of the test peptide divided by IC50 of the reference peptide)” value on DRB1*0401 is on record as 1; in the assay with DRB5 it was 2; on DRB1*0101 it was 82; with DRB4, 1.
Consider “EILELAQSETCSPGGQ [pC9, Can f 1 peptide p141–156]”, for which the “relative binding ratio (IC50 of the test peptide divided by IC50 of the reference peptide)” value is above 236 at DRB1*0301; above 13 at DRB1*1501; above 481 at DRB1*1301; above 167 with DRB3; 230 at DRB1*0701; above 200 at DRB1*1101. The “relative binding ratio (IC50 of the test peptide divided by IC50 of the reference peptide)” value is 113 at DRB1*0401, > 1 443 in the assay with DRB5, 54 on DRB1*0101 and > 1 179 in the assay on DRB4.
